From patent publication US10758534B2 (Vertex Pharmaceuticals Incorporated, priority 2014, dated 2020)

Each compound was assayed against T1, F508del (Homo sapiens, UniProt P13569, DEL508-508) (assay: Protocol 2: FRET membrane potential optical assay (VIPR), identification of correction compounds). Conditions: F508del CFTR modulator activity; compounds of Table 1; read-out: EC30.
T1 construct: expressed in transfected cells
T1 sequence (P13569 with tags, fused parts or gaps DEL508-508): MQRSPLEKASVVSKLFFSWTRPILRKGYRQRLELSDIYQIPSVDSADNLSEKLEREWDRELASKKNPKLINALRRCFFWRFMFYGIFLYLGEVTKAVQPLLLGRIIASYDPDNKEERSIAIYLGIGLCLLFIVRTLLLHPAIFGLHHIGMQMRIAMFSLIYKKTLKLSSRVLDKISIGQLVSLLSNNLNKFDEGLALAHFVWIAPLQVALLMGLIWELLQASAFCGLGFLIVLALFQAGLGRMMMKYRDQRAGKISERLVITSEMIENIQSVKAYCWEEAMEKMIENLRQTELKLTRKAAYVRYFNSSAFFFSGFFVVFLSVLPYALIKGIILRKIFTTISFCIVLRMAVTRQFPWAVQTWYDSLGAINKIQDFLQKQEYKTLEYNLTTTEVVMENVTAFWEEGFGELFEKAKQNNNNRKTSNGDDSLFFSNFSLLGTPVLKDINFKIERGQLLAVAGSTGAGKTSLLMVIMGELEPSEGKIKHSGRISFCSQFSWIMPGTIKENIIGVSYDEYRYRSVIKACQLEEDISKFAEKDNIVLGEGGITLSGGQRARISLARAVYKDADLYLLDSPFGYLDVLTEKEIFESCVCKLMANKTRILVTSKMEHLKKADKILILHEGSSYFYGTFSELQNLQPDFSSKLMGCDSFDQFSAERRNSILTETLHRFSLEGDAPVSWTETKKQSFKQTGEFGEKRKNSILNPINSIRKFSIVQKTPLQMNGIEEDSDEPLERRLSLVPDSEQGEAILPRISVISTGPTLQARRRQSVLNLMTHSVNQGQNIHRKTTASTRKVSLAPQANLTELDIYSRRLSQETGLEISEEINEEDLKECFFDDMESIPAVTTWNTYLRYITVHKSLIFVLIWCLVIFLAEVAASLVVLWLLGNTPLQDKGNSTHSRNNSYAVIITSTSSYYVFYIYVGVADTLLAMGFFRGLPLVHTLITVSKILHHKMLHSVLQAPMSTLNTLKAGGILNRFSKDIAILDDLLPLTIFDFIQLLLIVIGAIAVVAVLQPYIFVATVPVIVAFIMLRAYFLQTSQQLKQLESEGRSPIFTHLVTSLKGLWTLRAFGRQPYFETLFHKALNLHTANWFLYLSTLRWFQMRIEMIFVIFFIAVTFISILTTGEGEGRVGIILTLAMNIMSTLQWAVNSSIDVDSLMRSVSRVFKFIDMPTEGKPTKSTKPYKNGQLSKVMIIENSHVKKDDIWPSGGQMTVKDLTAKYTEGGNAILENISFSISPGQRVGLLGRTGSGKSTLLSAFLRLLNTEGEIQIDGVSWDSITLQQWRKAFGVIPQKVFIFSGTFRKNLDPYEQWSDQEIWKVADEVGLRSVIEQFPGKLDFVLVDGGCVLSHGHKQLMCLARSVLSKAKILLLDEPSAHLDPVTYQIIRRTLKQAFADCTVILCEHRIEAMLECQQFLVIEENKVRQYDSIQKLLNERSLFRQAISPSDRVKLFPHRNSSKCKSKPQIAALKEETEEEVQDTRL
Assay type: cell-based
Outline: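 NIH3T3 mouse fibroblasts stably expressing F508del were treated with test compound for 16 hrs at 37° C. in serum-free medium; 27° C. incubation served as positive control. F508del was activated with 10 μM forskolin plus 20 μM genistein in Cl^−-free medium, and Cl^− efflux-driven depolarization was read by DiSBAC2(3)/CC2-DMPE FRET.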
For `CC1CN(c2ncc(-c3cccc(Cl)c3)cc2C(=O)NS(=O)(=O)c2cccc(N)n2)C(C)(C)C1` (stereo not shown) [Compound 2429, N-[(6-amino-2-pyridyl)sulfonyl]-5-(3-chlorophenyl)-2-(2,2,4-trimethylpyrrolidin-1-yl)pyridine-3-carboxamide], the EC30 was < 3 µM.
With `CCOc1cc(-c2ccc(C(=O)NS(=O)(=O)c3ccc[nH]c3=O)c(N3C[C@@H](C)CC3(C)C)n2)ccc1F` [Compound 2459, 6-(3-ethoxy-4-fluoro-phenyl)-N-[(2-oxo-1H-pyridin-3-yl)sulfonyl]-2-[(4S)-2,2,4-trimethylpyrrolidin-1-yl]pyridine-3-carboxamide] the EC30 was < 3 µM.
For `CC1CN(c2ncc(-c3ccc(C(C)(C)C#N)cc3)cc2C(=O)NS(=O)(=O)c2cccc(N)n2)C(C)(C)C1` (stereo not shown) [Compound 2521, N-[(6-amino-2-pyridyl)sulfonyl]-5-[4-(1-cyano-1-methyl-ethyl)phenyl]-2-(2,2,4-trimethylpyrrolidin-1-yl)pyridine-3-carboxamide], the EC30 was < 3 µM.
With `CC(C)COc1ccn(-c2ccc(C(=O)NS(=O)(=O)c3cccnc3N)c(N3C[C@@H](C)CC3(C)C)n2)n1` [Compound 2191, N-[(2-amino-3-pyridyl)sulfonyl]-6-(3-isobutoxypyrazol-1-yl)-2-[(4S)-2,2,4-trimethylpyrrolidin-1-yl]pyridine-3-carboxamide] the EC30 was < 3 µM.
For `CC(=O)c1ccc(Oc2cccc(S(=O)(=O)NC(=O)c3cccnc3N3CC(C)CC3(C)C)n2)cc1` (stereo not shown) [Compound 2730], the EC30 was 3 to 10 µM.
For `CC1CN(c2ncccc2C(=O)NS(=O)(=O)c2cccc(NC3CCCCC3C)n2)C(C)(C)C1` (stereo not shown) [Compound 2218, N—[[6-[(2-methylcyclohexyl)amino]-2-pyridyl]sulfonyl]-2-(2,2,4-trimethylpyrrolidin-1-yl)pyridine-3-carboxamide], the EC30 was < 3 µM.
`Cc1cccc(Oc2cccc(S(=O)(=O)NC(=O)c3cccnc3N3CC(C)CC3(C)C)n2)c1` (stereo not shown) [Compound 2320, N—[[6-(3-methylphenoxy)-2-pyridyl]sulfonyl]-2-(2,2,4-trimethylpyrrolidin-1-yl)pyridine-3-carboxamide] was tested, and the EC30 was < 3 µM.

Same assay, conditions: Table 3; compounds of Table 1 as modulators of CFTR activity; protocol not stated
With `Cc1cccc(C)c1Cn1nc(-c2cccc3c2ccn3C)cc1C(=O)NS(=O)(=O)c1ccccc1` [Compound 363, N-(benzenesulfonyl)-2-[(2,6-dimethylphenyl)methyl]-5-(1-methylindol-4-yl)pyrazole-3-carboxamide] the EC30 was “+++ (“+++” means <3 uM)”.
For `Cc1cc(C)c(Oc2nc(-c3ccc(CC#N)cc3)ccc2C(=O)NS(=O)(=O)c2cccc(N)n2)c(C)c1` [Compound 638, N-[(6-amino-2-pyridyl)sulfonyl]-6-[4-(cyanomethyl)phenyl]-2-(2,4,6-trimethylphenoxy)pyridine-3-carboxamide], the EC30 was “++ (“++” means between 3 uM and 10 uM)”.
With `Cc1cc(C)c(Oc2nc(C(C)(C)C)ccc2C(=O)NS(=O)(=O)c2c[nH]ccc2=O)c(C)c1` [Compound 107, 6-tert-butyl-N-[(4-oxo-1H-pyridin-3-yl)sulfonyl]-2-(2,4,6-trimethylphenoxy)pyridine-3-carboxamide] the EC30 was “+++ (“+++” means <3 uM)”.
`Cc1cc(C)c(Oc2nc(-c3ccc(F)cc3)ccc2C(=O)NS(=O)(=O)c2cc[nH]n2)c(C)c1` [Compound 518, 6-(4-fluorophenyl)-N-(1H-pyrazol-3-ylsulfonyl)-2-(2,4,6-trimethylphenoxy)pyridine-3-carboxamide] was tested, and the EC30 was “+++ (“+++” means <3 uM)”.
`Cc1cc(C)c(Oc2nc(-c3ccc(C)c(C)c3)ccc2C(=O)NS(=O)(=O)c2cccc(N)n2)c(C)c1` [Compound 399, N-[(6-amino-2-pyridyl)sulfonyl]-6-(3,4-dimethylphenyl)-2-(2,4,6-trimethylphenoxy)pyridine-3-carboxamide] was tested, and the EC30 was “+++ (“+++” means <3 uM)”.
In the case of `CCOc1cc(F)cc(-c2ccc(C(=O)NS(=O)(=O)c3cccc(N)n3)c(N3[C@H](C)CC[C@@H]3C)n2)c1` [Compound 551, N-[(6-amino-2-pyridyl)sulfonyl]-2-[(2R,5S)-2,5-dimethylpyrrolidin-1-yl]-6-(3-ethoxy-5-fluoro-phenyl)pyridine-3-carboxamide], the EC30 is reported as “+++ (“+++” means <3 uM)”.
